Measured values published in patent publication US9656962B2, “Ring-contracted morphinans and the use thereof” (Purdue Pharma L.P., priority 2013, dated 2017).

Assays:
κ-opioid receptor [1] = target: T1, κ-opioid receptor (Homo sapiens (Human), UniProt P41145); assay: κ-opioid receptor [35S]GTPγS functional assay, HEK-293 or CHO cells (Table 4); format: biochemical; conditions: for Emax: relative to U69,593; for EC50: κ GTP
Experimental: κ-Opioid Receptor Functional Assay Procedures: Functional [^35S]GTPγS binding assays were conducted as follows. κ opioid receptor membrane solution was prepared by sequentially adding final concentrations of 0.026 μg/μl κ membrane protein (in-house), 10 μg/mL saponin, 3 μM GDP and 0.20 nM [^35S]GTPγS to binding buffer (100 mM NaCl, 10 mM MgCl2, 20 mM HEPES, pH 7.4) on ice. The prepared membrane solution (190 μl/well) was transferred to 96-shallow well polypropylene plates containing 10 μl of 20× concentrated stock solutions of agonist prepared in DMSO. Plates were incubated for 30 min at a temperature of about 25° C. with shaking. Reactions were terminated by rapid filtration onto 96-well Unifilter GF/B filter plates (Perkin Elmer, Shelton, Conn.) using a 96-well tissue harvester (Packard) and followed by three filtration washes with 200 μl ice-cold binding buffer (10 mM NaH2PO4, 10 mM Na2HPO4, pH 7.4). Filter plates were subsequently dried at 50° C. for 2-3 hours. Fifty μl/well scintillation cocktail (Perkin Elmer, Shelton, Conn.) was added and plates were counted in a Packard Top-Count for 1 min/well.
κ GTP Emax (%) is the maximal effect elicited by a compound relative to the effect elicited by U69,593.
In TABLE 4, activity response of certain Compounds of the Invention to the μ- and κ-opioid receptors was determined as described above for functional assays using HEK-293 or CHO cells.

[2] = target: recombinant human kappa opioid receptor (κ) (Homo sapiens (Human), UniProt P41145); assay: κ-opioid receptor radioligand binding assay ([3H]-U69,593); conditions: binding affinity
Experimental: κ-Opioid Receptor Binding Assay Procedures: Membranes from HEK-293 cells, CHO cells or U-2 OS cells expressing the recombinant human kappa opioid receptor (κ) were prepared by lysing cells in ice cold hypotonic buffer (2.5 mM MgCl2, 50 mM HEPES, pH 7.4) (10 mL/10 cm dish) followed by homogenization with a tissue grinder/Teflon pestle. Membranes from a cell line naturally expressing kappa opioid receptor can also be used. Membranes were collected by centrifugation at 30,000×g for 15 min at 4° C. and pellets were resuspended in hypotonic buffer to a final concentration of 1-3 mg/mL. Protein concentrations were determined using the BioRad protein assay reagent with bovine serum albumen as standard. Aliquots of κ receptor membranes were stored at −80° C.
Radioligand dose displacement assays used 0.4 nM [^3H]-U69,593 (GE Healthcare, Piscataway, N.J.; 40 Ci/mmole) with 15 μg membrane protein (recombinant opioid receptor expressed in HEK 293 cells; in-house prep) in a final volume of 200 μl binding buffer (5% DMSO, 50 mM Trizma base, pH 7.4). Non-specific binding was determined in the presence of 10 μM unlabeled naloxone or U69,593. All reactions were performed in 96-well polypropylene plates for 1 hour at a temperature of about 25° C. Binding reactions were terminated by rapid filtration onto 96-well Unifilter GF/C filter plates (Perkin Elmer, Shelton, Conn.) presoaked in 0.5% polyethylenimine (Sigma). Harvesting was performed using a 96-well tissue harvester (Perkin Elmer, Shelton, Conn.) followed by five filtration washes with 200 μl ice-cold binding buffer. Filter plates were subsequently dried at 50° C. for 1-2 hours. Fifty μl/well scintillation cocktail (Perkin Elmer, Shelton, Conn.) was added and plates were counted in a Packard Top-Count for 1 min/well.

μ-opioid receptor [3] = target: T2, μ-opioid receptor (Homo sapiens (Human), UniProt P35372); assay: μ-opioid receptor [35S]GTPγS functional assay, HEK-293 or CHO cells (Table 4); format: biochemical; conditions: for Emax: relative to DAMGO; for EC50: μ GTP
Procedure, shortened: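 Membranes from HEK-293, CHO or U-2 OS cells (or commercial) expressing recombinant μ receptor; 0.20 nM [35S]GTPγS, 3 mM GDP, saponin, in 100 mM NaCl/10 mM MgCl2/20 mM HEPES pH 7.4.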

κ-opioid receptor [4] = target: T1, κ-opioid receptor; assay: κ-opioid receptor [35S]GTPγS functional assay, U-2 OS cells (Table 5); format: biochemical; conditions: for Emax: relative to U69,593; for EC50: κ GTP
Procedure, shortened: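 [35S]GTPγS binding in κ receptor membranes (0.026 μg/μl protein) with 10 μg/mL saponin, 3 μM GDP and 0.20 nM [35S]GTPγS in pH 7.4 HEPES/NaCl/MgCl2 buffer. Agonist incubation lasted 30 min at about 25 °C, followed by filtration and scintillation counting. Emax is expressed relative to U69,593.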

μ-opioid receptor [5] = target: T2, μ-opioid receptor; assay: μ-opioid receptor radioligand binding assay ([3H]-diprenorphine); conditions: binding affinity
Experimental: μ-Opioid Receptor Binding Assay Procedures: Radioligand dose-displacement binding assays for μ-opioid receptors used 0.3 nM [^3H]-diprenorphine (Perkin Elmer, Shelton, Conn.), with […] membrane protein/well in a final volume of 500 μl binding buffer (10 mM MgCl2, 1 mM EDTA, 5% DMSO, 50 mM HEPES, pH 7.4). Reactions were carried out in the absence or presence of increasing concentrations of unlabeled naloxone. All reactions were conducted in 96-deep well polypropylene plates for 2 hours at room temperature. Binding reactions were terminated by rapid filtration onto 96-well Unifilter GF/C filter plates (Perkin Elmer, Shelton, Conn.), presoaked in 0.5% polyethylenimine using a 96-well tissue harvester (Perkin Elmer, Shelton, Conn.) followed by performing three filtration washes with 500 μl of ice-cold binding buffer. Filter plates were subsequently dried at 50° C. for 2-3 hours. BetaScint scintillation cocktail (Perkin Elmer, Shelton, Conn.) was added (50 μl/well), and plates were counted using a Packard Top-Count for 1 min/well. The data were analyzed using the one-site competition curve fitting functions in GraphPad PRISM™ v. 3.0 or higher (San Diego, Calif.), or an in-house function for one-site competition curve-fitting.

μ-opioid receptor [6] = target: T2, μ-opioid receptor; assay: μ-opioid receptor [35S]GTPγS functional assay, U-2 OS cells (Table 5); format: biochemical; conditions: for Emax: relative to DAMGO; for EC50: μ GTP
Procedure, shortened: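 Membranes (0.026 mg/mL) from cells expressing recombinant human μ-opioid receptor in a U-2 OS background were incubated with 0.20 nM [35S]GTPγS, 3 mM GDP and saponin in 20 mM HEPES pH 7.4, 100 mM NaCl, 10 mM MgCl2 for 30 min at about 25 °C. Filter-bound radioactivity counted; sigmoidal dose-response fits gave values, Emax relative to DAMGO.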

Row | Structure (SMILES) | Emax (κ-opioid receptor [1]) [%] | EC50 (κ-opioid receptor [1]) [nM] | Ki [2] [nM] | Emax (μ-opioid receptor [3]) [%] | EC50 (μ-opioid receptor [3]) [µM] | Emax (κ-opioid receptor [4]) [%] | EC50 (κ-opioid receptor [4]) [nM] | Ki (μ-opioid receptor [5]) [nM] | Emax (μ-opioid receptor [6]) [%] | EC50 (μ-opioid receptor [6]) [nM] | EC50 (μ-opioid receptor [3]; bound given in μM) [µM]
1 | O=C(NCCN1CCOCC1)[C@H]1C[C@]23CCN(CC4CC4)[C@H](Cc4ccc(O)cc42)[C@]3(O)C1 [Compound 93, (2S,3aS,4R,9bS)-12-(cyclopropylmethyl)-3a,8-dihydroxy-N-(2-morpholinoethyl)-1,2,3,3a,4,5-hexahydro-4,9b-(epimino-ethano)cyclopenta[a]naphthalene-2-carboxamide] | 81.5 ± 1.27 | 1.52 ± 0.17 | 0.64 ± 0.071 | 28.8 ± 4.91 | 0.00395 ± 0.00065 | – | – | – | – | – | –
2 | O=C(NCc1ccccc1)[C@@H]1C[C@]23CCN(CC4CC4)[C@H](Cc4ccc(O)cc42)[C@]3(O)C1 [Compound 33, (2R,3aS,4R,9bS)-N-benzyl-12-(cyclopropylmethyl)-3a,8-dihydroxy-1,2,3,3a,4,5-hexahydro-4,9b-(epiminoethano)cyclopenta[a]naphthalene-2-carboxamide] | 43.3 ± 0.33 | 7.03 ± 0.82 | 0.75 ± 0.13 | 1 | – | 103 ± 3.48 | 3.18 ± 0.46 | 1.39 ± 0.082 | 45.7 ± 0.67 | 3.84 ± 0.21 | > 20
3 | O=C(NCc1ccc(O)cc1O)[C@H]1C[C@]23CCN(CC4CC4)[C@H](Cc4ccc(O)cc42)[C@]3(O)C1 [Compound 42, (2S,3aS,4R,9bS)-12-(cyclopropylmethyl)-N-(2,4-dihydroxybenzyl)-3a,8-dihydroxy-1,2,3,3a,4,5-hexahydro-4,9b-(epimino-ethano)cyclopenta[a]naphthalene-2-carboxamide] | 98.3 ± 1.33 | 0.32 ± 0.059 | 0.37 ± 0.13 | 1 | – | 87.7 ± 4.63 | 1.27 ± 0.076 | 0.4 ± 0.024 | 35 ± 1.15 | 1.33 ± 0.12 | > 20
4 | COc1ccc2c(c1)[C@]13CCN(CC4CC4)[C@H](C2)[C@]1(O)C[C@H](C(N)=O)C3 [Compound 11, (2R,3aS,4R,9bS)-12-(cyclopropylmethyl)-3a-hydroxy-8-methoxy-1,2,3,3a,4,5-hexahydro-4,9b-(epiminoethano)cyclo-penta[a]naphthalene-2-carboxamide] | – | – | 182 ± 29.2 | – | – | 103 ± 1.67 | 1360 ± 49.8 | 2980 ± 466 | – | – | –
5 | N=C(N)NCCCCNC(=O)[C@@H]1C[C@]23CCN(CC4CC4)[C@H](Cc4ccc(O)cc42)[C@]3(O)C1 [Compound 7, (2R,3aS,4R,9bS)-12-(cyclopropylmethyl)-N-(4-guanidinobutyl)-3a,8-dibydroxy-1,2,3,3a,4,5-hexahydro-4,9b-(epimino-ethano)cyclopenta[a]naphthalene-2-carboxamide] | 57.5 ± 1.66 | 0.8 ± 0.26 | 0.13 ± 0.018 | 1 | – | 101 ± 3.67 | 1.16 ± 0.16 | 23.6 ± 5.56 | 56.3 ± 2.6 | 8.94 ± 1.31 | > 20
6 | CC(C)CNC(=O)[C@H]1C[C@]23CCN(CC4CC4)[C@H](Cc4ccc(O)cc42)[C@]3(O)C1 [Compound 36, (2S,3aS,4R,9bS)-12-(cyclopropylmethyl)-3a,8-dihydroxy-N-isobutyl-1,2,3,3a,4,5-hexahydro-4,9b-(epiminoethano)-cyclopenta[a]naphthalene-2-carboxamide] | 94.7 ± 3.71 | 2.24 ± 0.46 | – | 1 | – | 108 ± 4.1 | 0.27 ± 0.019 | – | 47.7 ± 3.18 | 1.96 ± 0.27 | > 20
7 | O=C(O)[C@@H]1C[C@]23CCN(CC4CC4)[C@H](Cc4ccc(O)cc42)[C@]3(O)C1 [Compound 16, (2R,3aS,4R,9bS)-12-(cyclopropylmethyl)-3a,8-dihydroxy-1,2,3,3a,4,5-hexahydro-4,9b-(epiminoethano)-cyclopenta-[a]naphthalene-2-carboxylic acid] | 38 ± 2.04 | 12.4 ± 3.66 | 17.3 ± 6.19 | 1 | – | 90.7 ± 5.81 | 13.2 ± 1.86 | 55.6 ± 11 | 31.8 ± 3.07 | 4.75 ± 0.62 | > 20
8 | O=C(NCc1ccccc1)[C@H]1C[C@]23CCN(CC4CC4)[C@H](Cc4ccc(O)cc42)[C@]3(O)C1 [Compound 34, (2S,3aS,4R,9bS)-N-benzyl-12-(cyclopropylmethyl)-3a,8-dihydroxy-1,2,3,3a,4,5-hexahydro-4,9b-(epiminoethano)cyclopenta[a]naphthalene-2-carboxamide] | 102 ± 2.73 | 0.094 ± 0.011 | 0.083 ± 0.014 | 40 ± 1.53 | 0.00375 ± 0.00066 | 93.3 ± 3.18 | 0.02 | – | 94 ± 0.58 | 0.25 ± 0.027 | –
9 | N[C@@H]1CC23CCN(CC4CC4)[C@H](Cc4ccc(O)cc42)[C@]3(O)C1 (stereo in doubt) [Compound 22, (2R,3aS,4R,9bS)-2-amino-12-(cyclopropylmethyl)-1,2,3,3a,4,5-hexahydro-4,9b-(epiminoethano)-cyclopenta[a]naphthalene-3a,8-diol] | 77 ± 1 | 25.7 ± 4.99 | – | 1 | – | 101 ± 1.76 | 25.4 ± 2.09 | – | 20.7 ± 2.4 | 111 ± 14.1 | > 20
10 | O=C(NCc1ccc(Cl)c(Cl)c1)[C@H]1C[C@]23CCN(CC4CC4)[C@H](Cc4ccc(O)cc42)[C@]3(O)C1 [Compound 47, (2S,3aS,4R,9bS)-12-(cyclopropylmethyl)-N-(3,4-dichlorobenzyl)-3a,8-dihydroxy-1,2,3,3a,4,5-hexahydro-4,9b-(epimino-ethano)cyclopenta[a]naphthalene-2-carboxamide] | 88.8 ± 10 | 0.03 ± 0.01 | – | 86 ± 3.46 | 0.00276 ± 8.2e-05 | 95 ± 5.29 | 0.015 | – | 98.8 ± 1.49 | 0.05 ± 0.01 | –
